Measurements as given in US8916711B2, “Imidazothiazole-chalcone derivatives as potential anticancer agents and process for the preparation thereof” (Council of Scientific and Industrial Research, priority 2009, dated 2014).

Experiments:
MCF7 = test: NCI in vitro cytotoxicity (SRB, 48 h), Breast panel; type: cell-based; details: Homo sapiens, MCF7; MCF-7; Table 4; read-out: Comparative efficacy
Protocol: (§1) The imidazothiazole-chalcone hybrids 7a, 7e, 7f, 8f and 19e have been tested against sixty human tumour cell lines derived from nine cancer types (leukemia, non-small cell lung cancer, colon cancer, CNS cancer, melanoma, ovarian cancer, renal cancer, prostate cancer and breast cancer) as per NCI protocol. For each compound, dose response curves for individual cell lines have been measured at a minimum of five concentrations at 10 fold dilutions. A protocol of 48 h continuous drug exposure has been used, and a sulforhodamine B (SRB) protein assay was used to estimate cell viability or growth. The concentration for 50% cell growth inhibition (GI50), total cell growth inhibition (TGI, 0% growth) and 50% cell death (LC50, […]) compared with the control has been calculated (Table-1).

MDA-MB-231/ATCC = test: as above; type: cell-based; details: Homo sapiens, Table 4, read-out: Comparative efficacy
Protocol: as §1

SR = test: NCI in vitro cytotoxicity (SRB, 48 h), Leukemia panel; type: cell-based; details: Homo sapiens
Protocol: as §1

Row | SMILES | melting point | also measured
1 | C1=Nc2c3c(ccc2=N1)=NCS3 [C, imidazobenzothiazole, reference compound] | – | IC50 (MCF7): 32.5 µM; IC50 (MDA-MB-231/ATCC): 43.2 µM
2 | COc1ccc(C(=O)/C=C/c2c(-c3ccc(F)cc3)nc3sccn23)cc1OC [Compound 8e, (E)-1-(3,4-dimethoxyphenyl)-3-(6-(4-fluorophenyl)imidazo[2,1-b]thiazol-5-yl)prop-2-en-1-one] | 221 to 223 °C | –
3 | Cc1ccc(C(=O)/C=C/c2c(-c3ccc(F)cc3)nc3sccn23)cc1C [Compound 9e, (E)-1-(3,4-dimethylphenyl)-3-(6-(4-fluorophenyl)imidazo[2,1-b]thiazol-5-yl)prop-2-en-1-one] | 210 to 213 °C | –
4 | COc1ccc(-c2nc3sccn3c2/C=C/C(=O)c2ccc3c(c2)OCO3)cc1 [Compound 11a, (E)-1-(benzo[d][1,3]dioxol-5-yl)-3-(6-(4-methoxyphenyl)imidazo[2,1-b]thiazol-5-yl)prop-2-en-1-one] | 189 to 191 °C | –
5 | O=C(/C=C/c1c(-c2ccc(F)cc2)nc2sccn12)c1ccc2ccccc2c1 [Compound 12e, (E)-3-(6-(4-fluorophenyl)imidazo[2,1-b]thiazol-5-yl)-1-(naphthalen-2-yl)prop-2-en-1-one] | 216 to 218 °C | –
6 | O=C(/C=C/c1c(-c2ccc(F)cc2)nc2sccn12)c1ccc(-c2ccccc2)cc1 [Compound 13e, (E)-1-(biphenyl-4-yl)-3-(6-(4-fluorophenyl)imidazo[2,1-b]thiazol-5-yl)prop-2-en-1-one] | 194 to 196 °C | –
7 | COc1ccc(-c2nc3sccn3c2/C=C/C(=O)c2cccs2)cc1 [Compound 16a, (E)-3-(6-(4-methoxyphenyl)imidazo[2,1-b]thiazol-5-yl)-1-(thiophen-2-yl)prop-2-en-1-one] | 169 to 172 °C | –
8 | COc1ccc(-c2nc3sccn3c2/C=C/C(=O)c2ccc[nH]2)cc1 [Compound 17a, (E)-3-(6-(4-methoxyphenyl)imidazo[2,1-b]thiazol-5-yl)-1-(1H-pyrrol-2-yl)prop-2-en-1-one] | 177 to 179 °C | –
9 | COc1cc(C(=O)/C=C/c2c(C(F)(F)F)nc3sc(C)cn23)cc(OC)c1OC [Compound 19f, (E)-3-(2-methyl-6-(trifluoromethyl)imidazo[2,1-b]thiazol-5-yl)-1-(3,4,5-trimethoxyphenyl)prop-2-en-1-one] | – | GI50 (SR): 0.8 µM
